Reference: ChEMBL document CHEMBL1201862, “PubChem BioAssay data set” (2004)
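1) Cells in 96-well plates. 2) Compound, 48 h, 5 concentrations. 3) Linear interpolation between surrounding doses. 4) Unreached endpoint = highest concentration. Here, GI50 denotes the concentration required for 50% inhibition of growth.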 Active and inactive are the calls of the source. Rule as the data show it: active = GI50 up to about 1.1 µM and inactive = higher.

Assays:
Experiment in all cases: NCI-60 cell line screen, 48 h
COLO 205 = tested on: COLO 205
EKVX = tested on: EKVX
HCC 2998 = tested on: HCC 2998
HOP-62 = tested on: HOP-62
K562 = tested on: K562
LOX IMVI = tested on: LOX IMVI
MOLT-4 = tested on: MOLT-4
NCI-H226 = tested on: NCI-H226
NCI-H23 = tested on: NCI-H23
OVCAR-5 = tested on: OVCAR-5
RPMI-8226 = tested on: RPMI-8226
SK-MEL-2 = tested on: SK-MEL-2
T47D = tested on: T47D
U-251 = tested on: U-251
UACC-62 = tested on: UACC-62
CCRF-CEM = tested on: CCRF-CEM
SR = tested on: SR
MDA-N = tested on: MDA-N

Measured: GI50

Cc1c(C(=O)O)sc2nc[nH]c(=O)c12
inactive: COLO 205 > 100 µM | EKVX 53.8 µM | HCC 2998 > 100 µM | HOP-62 > 100 µM | K562 > 100 µM | LOX IMVI > 100 µM | MOLT-4 > 100 µM | NCI-H226 25.1 µM | NCI-H23 > 100 µM | OVCAR-5 > 100 µM | RPMI-8226 > 100 µM | SK-MEL-2 > 100 µM | T47D > 100 µM | U-251 > 100 µM | UACC-62 > 100 µM

N#Cc1ccccc1NC(=O)/C(=N\Nc1ccc([N+](=O)[O-])cc1)C1C(=O)NC(=O)NC1=O
inactive: CCRF-CEM > 100 µM | COLO 205 > 100 µM | EKVX > 100 µM | HCC 2998 > 100 µM | HOP-62 > 100 µM | K562 > 100 µM | LOX IMVI > 100 µM | MOLT-4 > 100 µM | NCI-H23 > 100 µM | OVCAR-5 > 100 µM | RPMI-8226 > 100 µM | SK-MEL-2 > 100 µM | U-251 > 100 µM | UACC-62 > 100 µM

COc1ccc(/C=C(\C(C)=O)C(=O)Nc2ccccc2)cc1
inactive: CCRF-CEM > 100 µM | EKVX > 100 µM | HCC 2998 > 100 µM | HOP-62 > 100 µM | K562 > 100 µM | LOX IMVI > 100 µM | MOLT-4 > 100 µM | NCI-H226 > 100 µM | NCI-H23 > 100 µM | OVCAR-5 > 100 µM | RPMI-8226 > 100 µM | SK-MEL-2 > 100 µM | SR > 100 µM | U-251 > 100 µM | UACC-62 > 100 µM

OC(CC(O)(C(F)(F)F)C(F)(F)F)c1ccc(C(O)CC(O)(C(F)(F)F)C(F)(F)F)cc1 (stereo not given)
inactive: CCRF-CEM 16.8 µM | EKVX 14.7 µM | HCC 2998 17.2 µM | HOP-62 17 µM | K562 15.9 µM | LOX IMVI 16.7 µM | MDA-N 19.5 µM | MOLT-4 16.3 µM | NCI-H23 12.9 µM | OVCAR-5 17.1 µM | RPMI-8226 15.6 µM | SK-MEL-2 22.3 µM | SR 17.1 µM | T47D 13.3 µM | U-251 16.4 µM | UACC-62 12.2 µM

CC(C)c1ccc(O)c(Cc2cc(C(C)C)cc(Cc3cc(C(C)C)ccc3O)c2O)c1
inactive: CCRF-CEM 3.39 µM | COLO 205 3.32 µM | EKVX 2.65 µM | HCC 2998 1.78 µM | HOP-62 1.69 µM | K562 2.23 µM | MOLT-4 1.78 µM | NCI-H226 1.54 µM | NCI-H23 1.7 µM | OVCAR-5 1.75 µM | RPMI-8226 2.08 µM | SK-MEL-2 1.61 µM | SR 1.88 µM | U-251 1.69 µM | UACC-62 2.38 µM

CC(C)(C)C(=O)C(Cc1ccccc1)C(=O)C(C)(C)C
inactive: CCRF-CEM 39.6 µM | COLO 205 > 100 µM | EKVX > 100 µM | HCC 2998 > 100 µM | HOP-62 > 100 µM | K562 55 µM | LOX IMVI > 100 µM | MDA-N > 100 µM | MOLT-4 50.7 µM | NCI-H226 > 100 µM | NCI-H23 > 100 µM | OVCAR-5 > 100 µM | RPMI-8226 37.4 µM | SK-MEL-2 > 100 µM | SR 51.3 µM | T47D 25.5 µM | U-251 > 100 µM

CC(CO)C1=CC(C#CCOCc2ccccc2)N(C(=O)Oc2ccccc2)c2ccccc21 (stereo not given)
inactive: CCRF-CEM 15 µM | COLO 205 15.1 µM | EKVX 10.3 µM | HCC 2998 25.5 µM | HOP-62 29.3 µM | K562 8.26 µM | LOX IMVI 33.5 µM | MDA-N 21.3 µM | MOLT-4 4.63 µM | NCI-H226 40.7 µM | NCI-H23 8.89 µM | OVCAR-5 64.1 µM | RPMI-8226 13.1 µM | SK-MEL-2 23.3 µM | SR 9.53 µM | T47D 3.76 µM | U-251 34.5 µM | UACC-62 2.81 µM

CC(C)(CCCCC(C)(C)[N+](C)(C)C)[N+](C)(C)C
inactive: CCRF-CEM > 100 µM | COLO 205 > 100 µM | EKVX > 100 µM | HCC 2998 > 100 µM | HOP-62 > 100 µM | K562 > 100 µM | MDA-N > 100 µM | MOLT-4 > 100 µM | OVCAR-5 > 100 µM | RPMI-8226 > 100 µM | SR > 100 µM | T47D > 100 µM | U-251 > 100 µM

COC(=O)NCCc1n[nH]c2c1C(=O)C=C(OC)C2=O
inactive: CCRF-CEM 21.1 µM | COLO 205 24.8 µM | EKVX 22.9 µM | HCC 2998 > 100 µM | HOP-62 20.9 µM | K562 17.5 µM | LOX IMVI 17.8 µM | MDA-N 17.9 µM | MOLT-4 19.9 µM | NCI-H226 23 µM | NCI-H23 20 µM | OVCAR-5 20.7 µM | RPMI-8226 24.5 µM | SK-MEL-2 54.2 µM | SR 15 µM | U-251 16.7 µM | UACC-62 25.4 µM
